# Data taken from patent publication US20260274829A1, “NEW E3 UBIQUITIN LIGASE LIGAND, PROTEIN DEGRADATION AGENT AND USE THEREOF” (GLUETACS THERAPEUTICS (SHANGHAI) CO., LTD., priority 2023, published 2026).
# How the values were obtained:
# NCI-H1975 (H1975) = experiment: CCK-8 tumor cell proliferation IC50, NCI-H1975; settings: Homo sapiens, Table B3, designed based on the EGFR inhibitors, 96 hours, read-out: Inhibitory activity (IC50, nM) on tumor cell proliferation: H1975
# Description: (§1) The tumor cells used herein were cultured in a cell culture medium listed in table A1 at 37° C. in an incubator with 5% CO2. Prior to experimentation, all cell lines used were correctly identified by STR profiling, and tested negative for mycoplasma contamination using a mycoplasma detection kit through routine screenings.
# (§2) IC50 values of the compounds of the present disclosure (including the compounds in Table 1, and compounds of examples) were measured using the Meilun Cell Counting Kit-8 kit from Dalian Meilun Biotech Co., Ltd. Assay details are as follows: tumor cells were seeded in a 96-well plate at a density listed in Table A2. After 24 h, 100 μL of the inoculated cells were treated with 0.5 μL of the compounds of the present disclosure (including the compounds in Tables 1 and 2, and compounds of examples) at 10 different successively decreasing concentrations (starting at the highest concentration of 1 μM; 5-fold serial dilutions). […] The growth inhibition of the compounds of the present disclosure on cells was plotted by Prism Graphpad software, and the IC50 values of the compounds of the present disclosure were calculated therefrom.
# MM.1R = experiment: CCK-8 tumor cell proliferation IC50, MM.1R; settings: Table B4, designed based on the CDK4/6 inhibitors, 72 hours, read-out: Inhibitory activity (IC50, nM) on tumor cell proliferation: MM.1R
# Description: as §1, §2
# H1299 = experiment: CCK-8 tumor cell proliferation IC50, H1299; design: species or system human; settings: Homo sapiens, NCI-H1299, H1299 cells, compounds designed based on the IRAK4 inhibitors, read-out: Inhibitory activity (IC50, nM) on tumor cell proliferation, H1299
# Description: as §1
# as §2, with “dilutions). After the cells were treated with the compounds of the present disclosure for a period of time, the cell viability detection reagent was added to the culture medium for cell viability assessment according to the instructions provided with the CCK-8 kit.” for “dilutions).”
# LNcap = experiment: CCK-8 tumor cell proliferation IC50, LNcap; settings: Homo sapiens, Lncap cells, compounds designed based on the IRAK4 inhibitors, read-out: Inhibitory activity (IC50, nM) on tumor cell proliferation, Lncap
# Description: as §1, §2
# SR = experiment: CCK-8 tumor cell proliferation IC50, SR; settings: Homo sapiens, SR cells, compounds designed based on the IRAK4 inhibitors, read-out: Inhibitory activity (IC50, nM) on tumor cell proliferation, SR
# Description: as §1, §2
# Jurkat = experiment: CCK-8 tumor cell proliferation IC50, Jurkat; settings: Homo sapiens, Jurkat cells, compounds designed based on the IRAK4 inhibitors, read-out: Inhibitory activity (IC50, nM) on tumor cell proliferation, Jurkat
# Description: as §1, §2
# MV-4-11 = experiment: CCK-8 tumor cell proliferation IC50, MV-4-11; settings: Homo sapiens, MV4-11, MV-4-11 cells, compounds designed based on the IRAK4 inhibitors, read-out: Inhibitory activity (IC50, nM) on tumor cell proliferation, MV-4-11
# Description: as §1, §2
# CCRF-CEM = experiment: CCK-8 tumor cell proliferation IC50, CCRF-CEM; settings: Homo sapiens, CCRF-CEM cells, compounds designed based on the IRAK4 inhibitors, read-out: Inhibitory activity (IC50, nM) on tumor cell proliferation, CCRF-CEM
# Description: as §1, §2
smiles,measurement,setting,value
"O=C1CCC(Nc2cccc(CN3C4CCC3CN(c3ccc(-c5cc(F)c6c(c5)C(=O)N(C(C(=O)Nc5nccs5)c5ncn7c5CCC7)C6)cc3)C4)c2)C(=O)N1 (centres unmarked) [GT-06257, 2-(6,7-dihydro-5H-pyrrolo[1,2-c]imidazol-1-yl)-2-(6-(4-(8-(3-((2,6-dioxopiperidin-3-yl)amino)benzyl)-3,8-diazabicyclo[3.2.1]octan-3-yl)phenyl)-4-fluoro-1-oxoisoindolin-2-yl)-N-(thiazol-2-yl)acetamide]",IC50,NCI-H1975 (H1975),1 to 10 nM
CCN1CCN(Cc2ccc(Nc3ncc(F)c(-c4cc(F)c5nc(C)n(C(C)C)c5c4)n3)nc2)CC1 [abemaciclib],IC50,MM.1R,1000 to 5000 nM
Cc1cc(-c2nc(C(=O)Nc3cc4oc(N5CCOCC5)nc4nc3N3CC[C@@H](O)C3)co2)ccn1 [emavusertib],IC50,H1299,> 10000 nM
same,IC50,LNcap,> 10000 nM
same,IC50,SR,> 10000 nM
same,IC50,Jurkat,> 10000 nM
same,IC50,MV-4-11,50 to 100 nM
same,IC50,CCRF-CEM,> 10000 nM
